Assays:
[1] = Fold resistance, ratio of IC50 for antiproliferative activity for P-gp overexpressing human MES-SA/Dx5-Rx1cells to IC50 for antiproliferative activity for human MES-SA cells
[2] = Antiproliferative activity against human MES-SA cells assessed as growth inhibition; assay type: functional, cell-based
[3] = Cytotoxicity against human IMR90 cells up to 1 uM; assay type: cell-based; conditions: imr-90
[4] = Antiproliferative activity against P-gp overexpressing human MES-SA/Dx5-Rx1 cells assessed as growth inhibition; assay type: functional
HCT-15 = assay: Antiproliferative activity against human HCT15 cells assessed as growth inhibition; assay type: functional, cell-based
DLD-1 = assay: Antiproliferative activity against human DLD1 cells assessed as growth inhibition; assay type: functional, cell-based

| Compound | IC50 (HCT-15) [nM] | IC50 (DLD-1) [nM] | Ratio IC50 [1] | IC50 [2] [nM] | Activity [3] | IC50 [4] [nM] |
| --- | --- | --- | --- | --- | --- | --- |
| C=C1C[C@@H]2CC[C@@]34C[C@H]5O[C@H]6[C@@H](O3)[C@H]3O[C@H](CC[C@@H]3O[C@H]6[C@H]5O4)CC(=O)C[C@@H]3[C@@H](OC)[C@@H](C[C@@H](CN=[N+]=[N-])OCc4ccccc4)O[C@H]3C[C@H]3O[C@@H](CC[C@@H]1O2)C[C@@H](C)C3=C | 7.08 | 10.6 | 7.6 | 4.83 | Non-toxic | 36.7 |
| C=C1C[C@@H]2CC[C@@]34C[C@H]5O[C@H]6[C@@H](O3)[C@H]3O[C@H](CC[C@@H]3O[C@H]6[C@H]5O4)CC(=O)C[C@@H]3[C@@H](OC)[C@@H](C[C@H]4COCCO4)O[C@H]3C[C@H]3O[C@@H](CC[C@@H]1O2)C[C@@H](C)C3=C | 1.24 | 0.88 | 22.96 | 1 | Non-toxic | 23 |
| C=C1C[C@@H]2CC[C@@]34C[C@H]5O[C@H]6[C@@H](O3)[C@H]3O[C@H](CC[C@@H]3O[C@H]6[C@H]5O4)CC(=O)C[C@@H]3[C@@H](OC)[C@@H](C[C@@H](CN=[N+]=[N-])OC)O[C@H]3C[C@H]3O[C@@H](CC[C@@H]1O2)C[C@@H](C)C3=C | 0.48 | 0.78 | 4.19 | 0.44 | Non-toxic | 1.86 |

Continued, in another order:

| IC50 (HCT-15) [nM] | IC50 (DLD-1) [nM] | Compound | Ratio IC50 [1] | IC50 [2] [nM] | Activity [3] | IC50 [4] [nM] |
| --- | --- | --- | --- | --- | --- | --- |
| 0.44 | 0.83 | C=C1C[C@@H]2CC[C@@]34C[C@H]5O[C@H]6[C@@H](O3)[C@H]3O[C@H](CC[C@@H]3O[C@H]6[C@H]5O4)CC(=O)C[C@@H]3[C@@H](OC)[C@@H](CC(=O)OC)O[C@H]3C[C@H]3O[C@@H](CC[C@@H]1O2)C[C@@H](C)C3=C | 4.23 | 0.35 | Non-toxic | 1.48 |
| 0.61 | 1.05 | C=C1C[C@@H]2CC[C@@]34C[C@H]5O[C@H]6[C@@H](O3)[C@H]3O[C@H](CC[C@@H]3O[C@H]6[C@H]5O4)CC(=O)C[C@@H]3[C@@H](OC)[C@@H](C[C@@H](CC#N)OC)O[C@H]3C[C@H]3O[C@@H](CC[C@@H]1O2)C[C@@H](C)C3=C | 9.86 | 0.4 | Non-toxic | 3.9 |
| 0.4 | 0.47 | C=C1C[C@@H]2CC[C@@]34C[C@H]5O[C@H]6[C@@H](O3)[C@H]3O[C@H](CC[C@@H]3O[C@H]6[C@H]5O4)CC(=O)C[C@@H]3[C@@H](OC)[C@@H](CCCO)O[C@H]3C[C@H]3O[C@@H](CC[C@@H]1O2)C[C@@H](C)C3=C | 18.88 | 0.3 | Non-toxic | 5.67 |
| 18.3 | 17.6 | C=C1C[C@@H]2CC[C@@]34C[C@H]5O[C@H]6[C@@H](O3)[C@H]3O[C@H](CC[C@@H]3O[C@H]6[C@H]5O4)CC(=O)C[C@@H]3[C@@H](OC)[C@@H](CC(=O)O)O[C@H]3C[C@H]3O[C@@H](CC[C@@H]1O2)C[C@@H](C)C3=C | 7.72 | 12.4 | Non-toxic | 95.5 |

Source: ChEMBL document CHEMBL1681742, “Novel second generation analogs of eribulin. Part I: Compounds containing a lipophilic C32 side chain overcome P-glycoprotein susceptibility” (Bioorg Med Chem Lett, 2011)
